Data on one molecule can be found in PMC6331910, “The Curcumin Analogue 1,5-Bis(2-hydroxyphenyl)-1,4-pentadiene-3-one Induces Apoptosis and Downregulates E6 and E7 Oncogene Expression in HPV16 and HPV18-Infected Cervical Cancer Cells” (Molecules, 2015).

Where only a bound is given, the exact number is not on record here.

Data set [1] deals with CaSki. The data set can be described thus: DNA fragmentation, Cell Death Detection ELISA (cytoplasmic nucleosomal enrichment). The class given is cell-based, human. How it is done: (§1) HeLa, 9 μM] at various time points. Each experiment included a set of untreated control cells (Media with DMSO alone). The enrichment of the cytoplasm of treated cells by mono- and oligonucleosomes are used to study whether enhanced DNA fragmentation is induced by diarylpentanoid treatment. This determination was made following the manufacturer’s instructions of the Cell Death Detection ELISA^PLUS kit (Roche Diagnostics, Mannheim, Germany). […] Following treatment, the cells were incubated in lysis buffer and centrifuged, after which the supernatant was transferred to streptavidin coated plates and shaken with the provided immunoreagent (mixture of anti-DNA-POD and anti-histone biotin) for 2 h. […] Enrichment factor, defined as the release of mono- and oligonucleosomes into the cytoplasm, was calculated using the formula below: (4) Enrichment factor =Absorbance of Test − Absorbance of Blank (substrate only)/Absorbance of Control − Absorbance of Blank (substrate only)

For data set [2], the system named is HeLa. The data set can be described thus: MTT anti-proliferative (time-dependent) assay, 24, 48 and 72 h. The class given is cell-based, human. As for the experimental part: (§2) HeLa, CaSki and MRC9 cells were plated in triplicate wells in 96-well flat-bottomed tissue culture plates (Nunc, Roskilde, Denmark) with 10^5 cells per mL in 100 μL culture media with working concentrations of diarylpentanoid treatment ranging from 1.6 to 100 μM. Control-treated wells contained cells incubated in media with equal volumes of DMSO (0.2%). Cells were treated for 72 h for dose-dependent cytotoxicity assays and at 24, 48 and 72 h for anti-proliferative (time-dependent) assays. In order to assess cell viability and anti-proliferative activity after diarylpentanoid treatment, the colorimetric 3-(4,5-dimethylthiazol-2-yl)-2,5-diphenyltetrazolium bromide (MTT) assay was performed as previously described with modifications. The media was aspirated and cells were incubated in 100 µL complete medium with 0.5 mg/mL MTT solution for 4 h in the dark to allow metabolism of MTT by cellular mitochondrial dehydrogenases. The excess MTT was aspirated and the formazan crystals formed were dissolved by the addition of 100 µL of DMSO. The absorbance of dark blue formazan was read at 570/650 nm wavelengths using a microplate reader (Bio-Rad Benchmark Plus Microplate Spectrophotometer, Hercules, CA, USA). Triplicate absorbance values were averaged and the effect of the compounds on growth inhibition was assessed as percentage cell viability as follows: (1) Percentage cell viability =Absorbance of Test − Absorbance of Blank (media only)/Absorbance of Control − Absorbance of Blank (media only) × 100 where, absorbance = optical density of sample, O.D.; control = untreated sample; test = treated sample.
(§3) An independent set of vehicle-treated (DMSO only) controls were included in the anti-proliferative assays to assess the proliferation of untreated cancer cells over 24, 48 and 72 h. As such, the cell viability at 24 h was used as a baseline to measure proliferation rate at 48 and 72 h. (2) Percentage cell viability = […]/Absorbance of Control (24 h) × Absorbance of Blank (media only) × 100

Data set [3] relates to CaSki. The description is as above. Conditions: for cell viability: 3.1–100 μM. The class given is cell-based, human. How it is done: as §2, §3
In data set [4] the test system is C4-2 prostate cancer cells. On the set-up: method as in PMID 21796654. The note with it: cited from earlier work.
In data set [5] the test system is HeLa. Put plainly: DNA fragmentation, Cell Death Detection ELISA (cytoplasmic nucleosomal enrichment). The format is cell-based, human. How it is done: as §1, with “Each” for “HeLa, 9 μM] at various time points. Each”
Data set [6] deals with LNCaP prostate cancer cells. Further details: method as in PMID 21796654. Conditions: cited from earlier work.
Another data set deals with HPV16E7. The data set can be described thus: Quantitative real-time PCR of viral oncogene mRNA in CaSki cells. The format is cell-based, HPV16. The note with it: 24 h. How it is done: (§4) RNA extraction was performed using the Qiagen RNeasy® Mini Kit (Qiagen, Valencia, CA, USA). According to the manufacturer’s instructions, treated HeLa and CaSki cells were lysed using Buffer RLT (supplemented with β-mercaptoethanol) and centrifuged for 3 min at maximum speed. 70% ethanol was added to the lysate and placed in an RNeasy Mini spin column and spun at ≥8000× g for 15 s. Flow-through was discarded and the pellet was subjected to a series of wash steps using buffers RW1 and RPE and subsequent RNA elution. On-column RNase-Free DNase (Qiagen) treatment was incorporated into the extraction protocol to eliminate […]. Concentration and purity of extracted RNA was measured spectrophotometrically using NanoDrop 1000 (Thermo Fisher Scientific, Wilmington, DE, USA). Two μg of total RNA per 20 μL reaction was used for complementary DNA (cDNA) synthesis using a High Capacity RNA-to-cDNA kit (Applied Biosystems, Life Technologies, Foster City, CA, USA). Appropriate volumes of RNA sample were added to 10 μL 2XRT Buffer and 1 μL 20X RT Enzyme Mix and the total volume was adjusted to 20 μL using nuclease-free water. Reverse transcription was performed on the samples using the following conditions; 37 °C for 60 min and 95 °C for 5 min. The sequences used to design the primers and TaqMan® probes were obtained from previous publications, synthesized by Applied Biosystems and optimized to amplify the HPV16 and HPV18 E6 and E7 regions (sequences listed in Table 2) using the StepOnePlus™ Real-Time PCR system (Applied Biosystems). The optimized concentrations of the primers and probes used were […] respectively. Human VIC®-MGB ACTB (β-actin) was used as an endogenous control for internal normalisation and relative gene expression quantification. Each reaction was run in duplicates and used to calculate relative gene expression using the 2^−∆∆CT method. Expression is reported as fold change in the level of mRNA of treated cells relative to untreated cells, normalised to β-actin expression.
(In qPCR the cycle at which signal appears reflects the starting amount.)

The next data set deals with HPV16E6. Described as above. The format is cell-based, HPV16. Conditions: 24 h. How it is done: as §4

The term cell viability denotes the share of living cells, or the viability signal relative to a control. Read a high cell viability as better survival. Take `O=C(C=Cc1ccccc1O)C=Cc1ccccc1O` [MS17, 1,5-bis(2-hydroxyphenyl)-1,4-pentadiene-3-one]: the “increase in nucleosome enrichment” value in the data set with CaSki [1] (4 μM, 24 h, vs untreated) is 5 fold; in the data set with HeLa [5] (6 μM, 24 h, vs untreated), 2.2 fold. For the same molecule, the enrichment factor result in the data set on CaSki [1] (48 h) was “no significant difference between doses”; in the data set on CaSki [1] (72 h), “no significant reduction”; in the data set on HeLa [5] (6 and 9 μM, 72 h), “significant reduction of enrichment factor”. Besides, the “dosage from which reduction in cell viability was significantly higher at 48 and 72 h than at 24 h” value in the data set with HeLa [2] stood at 6.3 µM; in the data set with CaSki [3], 3.1 µM. The cell viability turned out to be 34% with HeLa [2] (6.3 μM onwards, 24 h); 22% with CaSki [3] (48 h); 9% in the data set on CaSki [3] (72 h). The cell growth in the data set on HeLa [2] (6.3 μM onwards, 48 h) was 12%; in the data set on HeLa [2] (6.3 μM onwards, 72 h), 5%; in the data set on CaSki [3] (12.5 μM onwards, 24 h), 43%. Besides, the “concentration causing significant cell death” value in data set [4] is “more than 2.5 μM”; in data set [6], over 10 µM. The “increase in enrichment factor” value in the data set on HeLa [5] (6 μM, 48 h, vs untreated) was “approximately two-fold”. In addition, the “inhibition of E7 oncogene expression” value in the data set on HPV16E7 (2 μM and 4 μM) was “did not show significant inhibition”. The “decrease in HPV16E7 expression” value with HPV16E7 (6 μM, vs untreated) worked out at 3 fold. Also, in the data set with HPV16E6 (2 μM and 4 μM), the “inhibition of E6 oncogene expression” value was “did not show significant inhibition”. In addition, the “decrease in HPV16E6 expression” value in the data set on HPV16E6 (6 μM, vs untreated) amounted to 3 fold.
